{"source": "patent US20200237700A1", "about": "“METHODS OF REDUCING OR PREVENTING OXIDATION OF SMALL DENSE LDL OR MEMBRANE POLYUNSATURATED FATTY ACIDS” (Amarin Pharmaceuticals Ireland Limited, priority 2015, published 2020)", "key": {"[1]": {"tested_on": "human sdLDL", "test": "Copper-induced sdLDL oxidation, TBARS after 2 hr (Example 6)", "format": "biochemical", "details": "10 μM CuSO4", "method": "An experiment to study the antioxidant effect of EPA in small dense […] performed. […] Vitamin E (α-tocopherol) was purchased from Sigma-Aldrich and prepared in ethanol at 1.0 mM (ε=3.06×10^4 M^-1 cm^-1 at 294 nm) just prior to experimental use. All test compounds were further diluted in ethanol or aqueous buffer as needed. Venous blood was collected from healthy volunteers into vacutainer tubes containing sodium EDTA. Plasma was separated by centrifugation at 3000 g for 25 min at 4° C. and adjusted to a density of 1.020 g/mL with KBr. Triglyceride-rich lipoproteins (TGRL) and LDL fractions were then isolated by sequential centrifugation at 70,000 rpm at 4° C. in a Beckman LE-80 ultracentrifuge using a Beckman 50.4Ti rotor (Beckman Coulter, Inc., Fullerton, Calif.). The TGRL fraction (with a relative density of <1.020) was aspirated from the top of the centrifugate and discarded, leaving an LDL-enriched […] relative density of 1.020 to 1.063). […] The sdLDL subfraction was retained for additional experimentation. Plasma and lipoprotein fractions were maintained at 4° C. and protected from excessive exposure to light. Prior to oxidation experiments, EDTA was removed from the lipoprotein fraction using PD-10 desalting columns (GE Healthcare, Piscataway N.J.). After equilibration of the column with phosphate buffered saline (PBS), 2.5 mL of the lipoprotein fraction was loaded on the column and the flow-through discarded. The lipoprotein was then eluted with 3 mL of PBS. The LDL fractions were further diluted with PBS to obtain a 100 μg/mL apoB100 concentration. […] Data are presented as mean±S.D. for (N) separate samples or treatment groups. Differences between groups were analyzed using the two-tailed, Student's t-test (for comparisons between only two groups) or ANOVA followed by Dunnett or Student-Newman-Keuls multiple comparisons post-hoc analysis (for comparisons between three or more groups)."}, "[2]": {"tested_on": "unfractionated LDL isolated from human plasma", "test": "Copper-induced oxidation of unfractionated LDL, TBARS (Example 6)", "format": "biochemical", "details": "10.0 μM; unfractionated LDL", "method": "All test compounds were further diluted in ethanol or aqueous buffer as needed. Venous blood was collected from healthy volunteers into vacutainer tubes containing sodium EDTA. […] Plasma and lipoprotein fractions were maintained at 4° C. and protected from excessive exposure to light. Prior to oxidation experiments, EDTA was removed from the lipoprotein fraction using PD-10 desalting columns (GE Healthcare, Piscataway N.J.). After equilibration of the column with phosphate buffered saline (PBS), 2.5 mL of the lipoprotein fraction was loaded on the column and the flow-through discarded. The lipoprotein was then eluted with 3 mL of PBS. The LDL fractions were further diluted with PBS to obtain a 100 μg/mL apoB100 concentration. […] Differences between groups were analyzed using the two-tailed, Student's t-test (for comparisons between only two groups) or ANOVA followed by Dunnett or Student-Newman-Keuls multiple comparisons post-hoc analysis (for comparisons between three or more groups)."}}, "data": [{"molecule": "CC/C=C\\C/C=C\\C/C=C\\C/C=C\\C/C=C\\CCCC(=O)O", "note": "[EPA, cis-5,8,11,14,17-eicosapentaenoic acid]", "values": [{"measurement": "reduced TBARS levels compared to vehicle-treated controls", "setting": "[1]; 1.0 μM", "value": 13, "unit": "%"}, {"measurement": "reduced TBARS levels compared to vehicle-treated controls", "setting": "[1]; 10.0 μM", "value": 57, "unit": "%"}, {"measurement": "reduced TBARS levels", "setting": "[2]", "value": 17, "unit": "%"}]}]}
